In patent publication US20260007712A1, “COMPOSITION FOR PREVENTING, AMELIORATING OR TREATING PERIODONTAL DISEASES” (NUTRACORE CO., LTD., priority 2022, published 2026):

Columns and labels:
Format in all cases: in vivo
TNF-α = TNF-α content in gingival tissue, EPD rat model; conditions: EPD rats; extracts 200 mg/kg, IND 5 mg/kg, oral once daily for 10 days; bottom of FIG. 7
Text: (§1) In this study, as part of the development of functional food ingredients derived from natural products to improve periodontitis and periodontal bone damage, three types of natural product extracts, dried rehmanniae radix, wasabi leaf, and Sancho extracts, that are well known for various physiological activities, including anti-inflammatory and antioxidant effects were compared and explored using a tooth neck ligation rat periodontal disease (experimental periodontitis; EPD) model to investigate the efficacy against periodontitis and periodontal bone loss.
(§2) Specifically, a total of 121 SPF/VAF Outbred Crl:CD [SD] male rats (OrientBio, Seungnam, Korea) were obtained, and after acclimatization for 7 days, experimental animals with a constant body weight were selected, and 10 animals per group were divided and tested in 7 groups below (normal medium control group: average 248.90±8.23 g, 236.00˜261.00 g; EPD-induced group: average 248.14±9.85 g, 219.00˜272.00 g). […]
(§3) Daily body weight was measured from 1 day before ligation, periodontal bone loss rate was measured on the final sacrifice day, some gingival tissue was extracted, changes in IL-1β, TNF-α, and MDA content were observed. The number of infiltrating inflammatory cells in the gingival tissue, periodontal bone volume (alveolar bone volume), and collagen content in the gums were measured.

[1] = tested on: periodontal bone loss (alveolar bone loss); test: Periodontal bone loss rate, tooth neck ligation rat periodontal disease (EPD) model; conditions: EPD rats; extracts 200 mg/kg, IND 5 mg/kg, oral once daily for 10 days from 24 h after ligation; FIG. 3
Text: as §1, §2, §3

IL-1β = IL-1β content in gingival tissue, EPD rat model; conditions: EPD rats; extracts 200 mg/kg, IND 5 mg/kg, oral once daily for 10 days; top of FIG. 7
Text: as §1, §2, §3

[2] = tested on: periodontal bone mass (alveolar bone volume); test: Periodontal bone mass (alveolar bone volume), EPD rat model; conditions: EPD rats; extracts 200 mg/kg, IND 5 mg/kg, oral once daily for 10 days; FIG. 4
Text: as §1, §2, §3

[3] = tested on: infiltrating inflammatory cells in gingival tissue; test: Number of infiltrating inflammatory cells in gingival tissue, EPD rat model; conditions: EPD rats; extracts 200 mg/kg, IND 5 mg/kg, oral once daily for 10 days; FIG. 5
Text: as §1, §2, §3

MDA = MDA content in gingival tissue, EPD rat model; conditions: EPD rats; extracts 200 mg/kg, IND 5 mg/kg, oral once daily for 10 days; FIG. 8
Text: as §1, §2, §3

[4] = tested on: collagen fibers in gingival tissue; test: Collagen fiber content in gingival tissue, EPD rat model; conditions: EPD rats; extracts 200 mg/kg, IND 5 mg/kg, oral once daily for 10 days; FIG. 6
Text: as §1, §2, §3

## COc1ccc2c(c1)c(CC(=O)O)c(C)n2C(=O)c1ccc(Cl)cc1 [IND, Indomethacin]
TNF-α
  change in TNF-α content in gingival tissue compared to the EPD control group: −50.46%
[1]
  change in periodontal bone loss rate compared to the EPD control group: −26.49%
IL-1β
  change in IL-1β content in gingival tissue compared to the EPD control group: −54.75%
[2]
  change in periodontal bone mass compared to the EPD control group: 188.14%
[3]
  change in number of infiltrating inflammatory cells in gingival tissue compared to the EPD control group: −57.61%
MDA
  change in MDA content in gingival tissue compared to the EPD control group: −42.44%
[4]
  change in proportion of collagen fibers in gingival tissue compared to the EPD control group: 148.65%
